What was measured:
[1] = test system: HCT116; assay: GI 50 determination, HCT116; format: cell-based; conditions: Homo sapiens, HCT-116
Experimental: (§1) Cells of each type listed in Table 2 were seeded in chamber slides.

[2] = test system: H2882; assay: GI 50 determination, H2882; format: cell-based; conditions: Homo sapiens, NCI-H2882
Experimental: as §1

[3] = test system: BJ; assay: GI 50 determination, BJ; format: cell-based; conditions: Homo sapiens; BJ normal cell line
Experimental: as §1

[4] = test system: H2009; assay: GI 50 determination, H2009; format: cell-based; conditions: Homo sapiens, NCI-H2009
Experimental: as §1

[5] = test system: BJ fibroblast cells; assay: Telomere length assay (TRF), BJ fibroblasts long-term culture; format: cell-based, human; conditions: 10 weeks, compared to untreated control
Experimental: (§2) For long-term cellular experiments, HCT116 (1,000 cells/cm^2) and BJ (10,000 cells/cm^2) cells were fed with 6-thio-dG (1, 3, 10 μM) containing medium every three days. The cells were counted and replated every week for 10-16 weeks. Additionally, HCT116 cells (1,000 cells/cm^2) were fed with 6-thio-G (1, 3, 10 μM) every three days and each week cells were counted, collected for TRF (Telomere Restriction Fragment) analysis and replated. HCT116 cells, following treatment with 10 μM 6-thio-dG for 12 weeks, were then treated with a combination of 10 μM 6-thio-dG and 3 μM GRN163L for 2-4 weeks.

[6] = test system: HCC827; assay: GI 50 determination, HCC827; format: cell-based; conditions: Homo sapiens
Experimental: as §1

[7] = test system: HCT116 cells; conditions: 1 μM or 10 μM every 3 days, after 10 weeks
Experimental: as §2

[8] = test system: HCC515; assay: GI 50 determination, HCC515; format: cell-based; conditions: Homo sapiens
Experimental: as §1

[9] = Experimental: Six WT mice were treated with 1.67 mg of 6-thio-dG/kg of body weight daily. Six WT mice were treated with 1.67 mg of 6-thio-G/kg of body weight daily. Six WT mice were treated with 5 mg of 6-thio-dG/kg of body weight daily. Six WT mice were treated with 5 mg of 6-thio-G/kg of body weight daily. The mice were given the appropriate dosage and weighed daily for 25 days.
[10] = test system: BJ-hTERT cells; assay: Telomere dysfunction induced foci (TIF) assay in BJ-hTERT cells; format: cell-based, human; conditions: 10 μM, after 48 hours
Experimental: (§3) TIFs were quantified using Imaris software.
(§4) Normal BJ cells and […] BJ-hTERT cells were seeded in chamber slides. Following cell attachment, 6-thio-dG (10 μM) and 6-thio-G (10 μM) were added to fresh medium of each cell type. […] A control was used for each cell type as well, where DMSO was added to fresh medium of each cell type. […] These include almost all human cancer cells and certain human diseases involving acute and chronic inflammation.

[11] = biological target: T1, telomerase (Homo sapiens, UniProt O14746); assay: Telomerase activity by TRAP assay in treated HCT116 cells; format: cell-based; conditions: HCT116 cells treated with 1 and 10 μM every 3 days for 12 weeks
T1 construct: endogenous in cells; host or cells: HCT116 human colon cancer cells (lysate)
T1 sequence (O14746 whole entry): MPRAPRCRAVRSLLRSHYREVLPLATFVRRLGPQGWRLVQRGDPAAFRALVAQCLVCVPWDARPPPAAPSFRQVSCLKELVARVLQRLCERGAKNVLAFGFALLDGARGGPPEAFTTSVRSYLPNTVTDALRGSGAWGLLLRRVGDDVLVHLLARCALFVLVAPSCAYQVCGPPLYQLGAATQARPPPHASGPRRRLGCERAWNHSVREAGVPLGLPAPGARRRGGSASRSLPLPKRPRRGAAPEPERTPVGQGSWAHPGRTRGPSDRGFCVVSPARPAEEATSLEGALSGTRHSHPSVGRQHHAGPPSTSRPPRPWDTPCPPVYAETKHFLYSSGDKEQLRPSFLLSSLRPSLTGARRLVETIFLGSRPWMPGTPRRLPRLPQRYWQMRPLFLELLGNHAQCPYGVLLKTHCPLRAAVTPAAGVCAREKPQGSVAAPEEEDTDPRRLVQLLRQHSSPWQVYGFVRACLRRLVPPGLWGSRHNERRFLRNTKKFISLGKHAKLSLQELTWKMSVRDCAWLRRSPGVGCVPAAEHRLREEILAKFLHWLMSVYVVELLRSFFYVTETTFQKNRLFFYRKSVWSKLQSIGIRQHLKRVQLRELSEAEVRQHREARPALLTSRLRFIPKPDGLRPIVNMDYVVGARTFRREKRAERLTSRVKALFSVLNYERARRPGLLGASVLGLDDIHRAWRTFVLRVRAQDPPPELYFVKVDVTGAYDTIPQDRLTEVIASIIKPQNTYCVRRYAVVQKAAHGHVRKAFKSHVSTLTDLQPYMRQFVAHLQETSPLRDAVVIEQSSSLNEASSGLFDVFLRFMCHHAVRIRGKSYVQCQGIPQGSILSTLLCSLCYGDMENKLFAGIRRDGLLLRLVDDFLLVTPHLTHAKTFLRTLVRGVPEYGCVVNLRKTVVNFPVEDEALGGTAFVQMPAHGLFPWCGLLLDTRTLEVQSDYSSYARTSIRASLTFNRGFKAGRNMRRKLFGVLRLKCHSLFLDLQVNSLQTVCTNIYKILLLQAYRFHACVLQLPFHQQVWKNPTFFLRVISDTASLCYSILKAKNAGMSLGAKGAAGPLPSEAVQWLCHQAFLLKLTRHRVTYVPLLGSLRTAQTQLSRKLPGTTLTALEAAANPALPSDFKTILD
T1 sequence (O60832 whole entry partner): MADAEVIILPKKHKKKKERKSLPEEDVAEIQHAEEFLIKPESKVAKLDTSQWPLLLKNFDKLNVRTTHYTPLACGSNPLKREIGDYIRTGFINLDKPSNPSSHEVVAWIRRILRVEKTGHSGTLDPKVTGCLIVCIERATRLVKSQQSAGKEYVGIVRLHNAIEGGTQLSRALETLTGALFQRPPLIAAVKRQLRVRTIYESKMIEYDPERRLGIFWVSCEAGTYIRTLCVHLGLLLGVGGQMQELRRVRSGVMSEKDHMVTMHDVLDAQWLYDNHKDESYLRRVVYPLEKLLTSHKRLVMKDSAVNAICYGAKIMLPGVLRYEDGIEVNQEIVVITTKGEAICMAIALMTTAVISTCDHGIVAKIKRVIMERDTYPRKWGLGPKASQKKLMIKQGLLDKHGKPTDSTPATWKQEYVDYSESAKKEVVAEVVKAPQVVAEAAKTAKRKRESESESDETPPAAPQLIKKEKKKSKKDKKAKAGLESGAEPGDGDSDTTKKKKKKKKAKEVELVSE
T1 sequence (Q9NY12 whole entry partner): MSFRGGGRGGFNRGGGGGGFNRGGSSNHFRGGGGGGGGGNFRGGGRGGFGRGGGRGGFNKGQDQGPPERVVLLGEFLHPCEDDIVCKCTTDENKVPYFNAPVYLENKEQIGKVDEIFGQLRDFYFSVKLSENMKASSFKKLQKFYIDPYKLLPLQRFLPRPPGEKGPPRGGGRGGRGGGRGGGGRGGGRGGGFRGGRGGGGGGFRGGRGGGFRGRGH
T1 sequence (Q9NX24 whole entry partner): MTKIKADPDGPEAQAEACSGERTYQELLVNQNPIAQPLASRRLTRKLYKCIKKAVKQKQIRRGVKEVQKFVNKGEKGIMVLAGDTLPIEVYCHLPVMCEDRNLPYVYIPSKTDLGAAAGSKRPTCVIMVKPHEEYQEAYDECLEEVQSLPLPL
T1 sequence (Q9NPE3 whole entry partner): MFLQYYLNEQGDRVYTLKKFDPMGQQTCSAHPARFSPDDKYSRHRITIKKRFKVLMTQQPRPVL
T1 sequence (Q9BUR4 whole entry partner): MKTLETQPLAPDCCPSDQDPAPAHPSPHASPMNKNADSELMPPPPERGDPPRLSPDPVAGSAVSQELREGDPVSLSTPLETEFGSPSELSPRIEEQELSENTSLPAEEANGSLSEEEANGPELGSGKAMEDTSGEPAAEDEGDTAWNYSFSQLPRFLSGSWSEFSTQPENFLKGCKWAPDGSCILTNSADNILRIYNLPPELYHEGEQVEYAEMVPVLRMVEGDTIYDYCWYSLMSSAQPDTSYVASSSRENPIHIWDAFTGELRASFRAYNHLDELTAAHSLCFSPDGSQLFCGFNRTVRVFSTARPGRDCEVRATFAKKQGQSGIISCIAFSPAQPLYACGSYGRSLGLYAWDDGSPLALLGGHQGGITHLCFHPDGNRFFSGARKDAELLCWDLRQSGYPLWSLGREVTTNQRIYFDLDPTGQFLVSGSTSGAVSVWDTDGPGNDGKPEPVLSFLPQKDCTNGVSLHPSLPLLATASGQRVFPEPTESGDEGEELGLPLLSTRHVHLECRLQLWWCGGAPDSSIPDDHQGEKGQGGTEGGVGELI
Experimental: Telomerase activity was measured by the TRAP assay (Telomeric Repeat Amplification Protocol as described in Shay J. W. and Bacchetti S., “A survey of telomerase activity in human cancer,” European Journal of Cancer 1997; 33:787-91.). Briefly, HCT116 cells were treated with 1 or 10 μM 6-thio-dG for 1-12 weeks. 1×10^5 cells were collected and lysed with ice-cold NP-40 lysis buffer (10 mM Tris-HCl pH 8.0, 1.0 mM MgCl2, 1 mM EDTA, 1% NP-40, 0.25 mM sodium deoxycholate, 10% glycerol, 150 mM NaCl, 5 mM β-mercaptoethanol) for 30 min. One microliter cellular lysate for 2500 cells was used for each reaction. Hela cells were used as a positive control and lysis buffer was used as a negative control. Samples were prepared and then the telomerase extension products were amplified using PCR (95° C. for 5 min to inactivate telomerase, then 95° C. for 30 sec, 52° C. for 30 sec, 72° C. for 30 sec; 24 cycles). Samples were run on a 10% non-denaturating acrylamide gel and visualized using a Typhoon PhosphorImager scanner system (Molecular Dynamics, GE Healthcare, Piscataway, NJ) that is capable of reading Cy5 fluorescence.

[12] = test system: HCC4017; assay: GI 50 determination, HCC4017; format: cell-based; conditions: Homo sapiens
Experimental: as §1

[13] = test system: A549; assay: GI 50 determination, A549; format: cell-based; conditions: Homo sapiens
Experimental: as §1

[14] = test system: HCC15; assay: GI 50 determination, HCC15; format: cell-based; conditions: Homo sapiens
Experimental: as §1

[15] = test system: A549 human lung cancer cells; assay: Tumor growth in xenograft animal model with A549 cells; format: in vivo, mice; conditions: 2.5 mg/kg every day
Experimental: Doses of 2.5 mg/kg of 6-thio-dG and 2.5 mg/kg of 6-thio-G were injected every day into mice after tumor implantation and providing time for tumor initiation. DMSO injections were used for the control. The volume of the tumor was measured.

[16] = test system: BJ cells; assay: Telomere dysfunction induced foci (TIF) assay in normal BJ cells; format: cell-based, human; conditions: 10 μM, after 48 hours
Experimental: as §3, §4

[17] = test system: HCC2429; assay: GI 50 determination, HCC2429; format: cell-based; conditions: Homo sapiens
Experimental: as §1

[18] = test system: H2087; assay: GI 50 determination, H2087; format: cell-based; conditions: Homo sapiens, NCI-H2087
Experimental: as §1

[19] = test system: H1693; assay: Sensitization by 5-azacytidine pretreatment, H1693; format: cell-based, human; conditions: 500 nM 5-azacytidine for one week
Experimental: (§5) All three resistant cell lines were pre-treated with 500 nM of the demethylating agent 5-azacytidine for one week. Following the 5-azacytidine pretreatment, each resistant cell line was treated with 9 different concentrations (0.01 to 1000 micromolar) of 6-thio-dG for one week. Cells were then evaluation for growth/death.

[20] = test system: H1819; assay: Sensitization by 5-azacytidine pretreatment, H1819; format: cell-based, human; conditions: 500 nM 5-azacytidine for one week
Experimental: as §5

[21] = test system: H1993 cells; assay: Sensitization by 5-azacytidine pretreatment, H1993; format: cell-based, human; conditions: 500 nM 5-azacytidine for one week
Experimental: as §5

For `Nc1nc2nc[nH]c2c(=S)[nH]1` [6-thio-G, 6-thioguanine, reference compound], which GI50 [1] is on record?
The GI50 was 1200 nM.

And the GI50 [2]?
The GI50 was 600 nM.

And the GI50 [3]?
Its GI50 is > 100000 nM.

And the GI50 [4]?
The GI50 was 3300 nM.

What about the “telomere shortening (TRF)” value [5] of the same compound?
The value was “did not show enhanced telomere shortening”.

What about the GI50 [6] of the same compound?
Its GI50 is 1700 nM.

What about the “effect on telomere length (TRF)” value [7] of the same compound?
Its value is “did not result in any significant effects on telomere length”.

What about the GI50 [8] of the same compound?
The GI50 was 4900 nM.

And the mortality ([9]; WT mice, 5 mg/kg daily)?
Its mortality is “all mice died by the 15th day”.

And the weight loss ([9]; mouse, in vivo, 5 mg/kg)?
The weight loss was “around 2 grams”.

What about the “>4 TIFs per nucleus background subtracted” value [10] of the same compound?
Its value is 0.

And the “inhibition of telomerase activity (TRAP)” value [11]?
The value was “no inhibition of telomerase activity was observed”.

What about the GI50 [12] of the same compound?
Its GI50 is 2000 nM.

And the GI50 [13]?
Its GI50 is 2300 nM.

What about the GI50 [14] of the same compound?
Its GI50 is 1100 nM.

What about the “histology of residual tumors” value [15] of the same compound?
The value was “mostly “healthy” growing cancerous cells”.

What about the “>4 TIFs per nucleus background subtracted” value [16] of the same compound?
Its value is 0.

What about the GI50 [17] of the same compound?
Its GI50 is 700 nM.

And the GI50 [18]?
Its GI50 is 900 nM.

For `Nc1ncn([C@@H]2O[C@H](CO)[C@@H](O)[C@H]2O)c(=O)n1` [5-azacytidine], which “effect of pretreatment on sensitivity to 6-thio-dG” value (from here on “effect of pretreatment”) [19] is on record?
Its value is “no effect on the sensitivity”.

What about the “effect of pretreatment” value [20] of the same compound?
The value was “no effect on the sensitivity”.

What about the “effect of pretreatment” value [21] of the same compound?
The value was “did increase sensitivity of the H1993 cells substantially”.
